Source: ChEMBL document CHEMBL4007412, “Design, Synthesis, and Biological Evaluation of Mitochondria-Targeted Flavone-Naphthalimide-Polyamine Conjugates with Antimetastatic Activity” (J Med Chem, 2017)
The source made the active and inactive calls. The rule behind the calls is not given here.

Assays:
SMMC-7721 [1] = test: Induction of intracellular ROS generation in human SMMC7721 cells at 20 uM after 8 hrs by DCFH-DA staining based HCS analysis relative to control; format: functional
SMMC-7721 [2] = test: Effect on spermine levels in human SMMC7721 cells at 20 uM after 24 hrs by HPLC analysis; format: functional, cell-based
HepG2 [3] = test: Induction of p53 expression in human HepG2 cells up to 20 uM pre-treated with NAC after 24 hrs by Western blot analysis relative to control; format: functional, cell-based
HepG2 [4] = test: Induction of apoptosis in human HepG2 cells assessed as reduction in viable cells up to 20 uM after 24 hrs by AO/EB double staining based flow cytometric analysis; format: functional, cell-based
HepG2 [5] = test: Induction of apoptosis in human HepG2 cells assessed as late apoptotic cells at 20 uM after 24 hrs by Annexin V-FITC/propidium iodide staining based flow cytometric analysis (reference value: 8.96 %); format: functional
Mus musculus [6] = test: Toxicity in Kunming mouse xenografted with […] cells assessed as effect on kidney weight index at 3 mg/kg, iv dosed every day starting from day 8 after tumor cell inoculation; format: organism-based; conditions: in vivo
H22 [7] = test: Antitumor activity against […] xenografted in Kunming mouse assessed as suppression of tumor weight at 3 mg/kg, iv dosed every day starting from day 8 after tumor cell inoculation; format: functional
HepG2 [8] = test: Induction of cleaved caspase 3 expression in human HepG2 cells up to 20 uM pre-treated with NAC measured after 24 hrs by Western blot analysis; format: functional, cell-based
HepG2 [9] = test: Induction of cleaved PARP expression in human HepG2 cells up to 20 uM pre-treated with NAC measured after 24 hrs by Western blot analysis; format: functional, cell-based
HepG2 [10] = test: Antiproliferative activity against human HepG2 cells assessed as reduction in cell viability at 20 uM pre-treated with TOC after 48 hrs by MTT assay; format: functional, cell-based
[11] = Drug localization in human HepG2 cell mitochondria at 10 uM after 8 hrs by Mito tracker-staining based confocal microscopic analysis; format: ADME
[12] = Induction of apoptosis in human QSG7701 cells assessed as up-regulation of caspase 3 expression up to 20 uM after 24 hrs by Western blot analysis; format: cell-based; conditions: qsg7701, 24 h
HepG2 [13] = test: Effect on spermidine levels in human HepG2 cells at 20 uM after 24 hrs by HPLC analysis; format: functional, cell-based
HepG2 [14] = test: Cytotoxicity against human HepG2 cells assessed as reduction in cell viability up to 20 uM after 24 to 72 hrs by MTT assay; format: functional, cell-based
HepG2 [15] = test: Induction of apoptosis in human HepG2 cells assessed as upregulation of cleaved caspase 3 after 24 hrs by immunofluorescence analysis; format: functional, cell-based
[16] = Drug uptake in human HepG2 cells assessed as PAT-mediated compound uptake by measuring fluorescent intensity at 5 to 10 uM after 6 hrs in presence of spermidine by HCS analysis; format: ADME, cell-based
HepG2 [17] = test: Induction of apoptosis in human HepG2 cells assessed as viable cells at 20 uM after 24 hrs by Annexin V-FITC/propidium iodide staining based flow cytometric analysis (reference value: 86 %); format: functional; conditions: HepG2, 24 h, read-out: Activity
[18] = Drug localization in mitochondria of human HepG2 cells at 10 uM after 8 hrs by UV-bright field microscopic analysis; format: ADME
H22 [19] = test: Antimetastatic activity against […] xenografted in pulmonary metastasis Kunming mouse model assessed as reduction in tumor metastatic nodules at 3 mg/kg, iv dosed every day starting from day 8 after tumor cell inoculation by H/E staining based leica microscopic analysis; format: functional, organism-based
HepG2 [20] = test: Induction of ROS generation in human HepG2 cells assessed as depletion of GSH content at 20 uM after 24 hrs by GSSG assay; format: functional, cell-based
H22 [21] = test: Antimetastatic activity against […] xenografted in pulmonary metastasis Kunming mouse model assessed as reduction in tumor metastatic nodules at 3 mg/kg, iv dosed every day starting from day 8 after tumor cell inoculation; format: functional; set-up: scale not given: the % may be the effect or the level left
[22] = Drug uptake in human SMMC7721 cells assessed as PAT-mediated cellular uptake after 8 hrs by HCS analysis; format: ADME, cell-based
HepG2 [23] = test: Disruption of mitochondrial membrane potential in human HepG2 cells at 20 uM after 24 hrs by JC-1 staining based flow cytometry; format: functional, cell-based
[24] = Drug uptake in human HepG2 cells assessed as PAT-mediated compound uptake by measuring fluorescent intensity at 10 uM after 2 to 8 hrs in presence of spermidine by HCS analysis; format: ADME, cell-based
SMMC-7721 [25] = test: Effect on spermidine levels in human SMMC7721 cells at 20 uM after 24 hrs by HPLC analysis; format: functional, cell-based
HepG2 [26] = test: Induction of apoptosis in human HepG2 cells assessed as early apoptotic cells at 20 uM after 24 hrs by Annexin V-FITC/propidium iodide staining based flow cytometric analysis (reference value: 2.09 %); format: functional
[27] = Drug uptake in human HepG2 cells assessed as PAT-mediated cellular uptake after 8 hrs by HCS analysis; format: ADME, cell-based
SMMC-7721 [28] = test: Antiproliferative activity against human SMMC7721 cells assessed as reduction in cell viability at 20 uM pre-treated with TOC after 48 hrs by MTT assay; format: functional, cell-based
HepG2 [29] = test: Effect on SSAT expression in human HepG2 cells at 5 to 20 uM after 24 hrs by Western blot analysis; format: functional, cell-based
Mus musculus [30] = test: Toxicity in Kunming mouse xenografted with […] cells assessed as effect on lung weight index at 3 mg/kg, iv dosed every day starting from day 8 after tumor cell inoculation; format: organism-based; conditions: in vivo

Question: With `Cl.Cl.NCCCCNCCCCN1C(=O)c2cccc3c(-c4cc(=O)c5ccccc5o4)ccc(c23)C1=O` as the compound, how does the “fold change (FC)” value (SMMC-7721 [1]) read?
Answer: 2.2

Question: What about the Activity (SMMC-7721 [2]) of the same compound?
Answer: inactive

Question: What about the Activity (HepG2 [3]) of the same compound?
Answer: inactive

Question: What about the Activity (HepG2 [4]) of the same compound?
Answer: Dose-dependent effect

Question: And the Activity (HepG2 [5])?
Answer: 26.6%

Question: And the Activity (Mus musculus [6])?
Answer: Non-Toxic

Question: What about the Activity (H22 [7]) of the same compound?
Answer: 60.4%

Question: What about the Activity (HepG2 [8]) of the same compound?
Answer: inactive

Question: What about the Activity (HepG2 [9]) of the same compound?
Answer: inactive

Question: What about the Activity (HepG2 [10]) of the same compound?
Answer: inactive

Question: And the Drug uptake [11]?
Answer: Active

Question: What about the Activity [12] of the same compound?
Answer: Non-Toxic

Question: What about the Activity (HepG2 [13]) of the same compound?
Answer: inactive

Question: What about the Activity (HepG2 [14]) of the same compound?
Answer: Active

Question: And the Activity (HepG2 [15])?
Answer: Dose-dependent effect

Question: What about the Drug uptake [16] of the same compound?
Answer: Not Active

Question: What about the viability at 20 µM (HepG2 [17]) of the same compound?
Answer: 37.8%

Question: And the Drug uptake [18]?
Answer: Active

Question: And the Activity (H22 [19])?
Answer: Active

Question: What about the Activity (HepG2 [20]) of the same compound?
Answer: Active

Question: And the Activity (H22 [21])?
Answer: 77.9%

Question: And the Drug uptake [22]?
Answer: Dose-dependent effect

Question: What about the Activity (HepG2 [23]) of the same compound?
Answer: Active

Question: And the Drug uptake [24]?
Answer: Not Active

Question: What about the Activity (SMMC-7721 [25]) of the same compound?
Answer: inactive

Question: And the Activity (HepG2 [26])?
Answer: 26.6%

Question: And the Drug uptake [27]?
Answer: Dose-dependent effect

Question: And the Activity (SMMC-7721 [28])?
Answer: inactive

Question: What about the Activity (HepG2 [29]) of the same compound?
Answer: inactive

Question: And the Activity (Mus musculus [30])?
Answer: Non-Toxic
